Test [1] can be described thus: Methylphenidate antagonism (mice biting corrugated paper). It is filed as in vivo. The conditions noted are these: for ED50: Mus musculus, ip. Here is the method: Methylphenidate antagonism (ED50 mg/kg i.p.)
Perspex observation cages without bottom and lid, consisting of 5 sections each measuring 12×25×30 cm. White corrugated paper. Mice, male, 18-25 g.
The test substance is given i.p. in the doses 0, 1/8, 1/32 and 1/128 of the determined "i.p. LD50". 3×2 mice are used for each dose level. Two or 24 hours after injection of test substance, methylphenidate, 60 mg/kg, is injected s.c. After administration of methylphenidate the mice are placed in the observation cages, 2 in each cage, where they remain for exactly 1 hour. The cages are placed on corrugated paper, the corrugations facing upwards. It is examined whether the mice have been biting the corrugated paper or not. […] If one or more of the control pairs have not been biting, the test has to be repeated on a new set of mice.
The result is stated in fractions: 0/3, 1/3, 2/3 and 3/3 where 0, 1, 2 and 3 are the number of pairs which have not been biting on receipt of the dose in question.
The results are calculated as the dose (ED50), which causes antagonism in 50% of the test animals.

Test [2] in a line: Amphetamine antagonism (stereotypy in rats). Format: in vivo. The following applies: Rattus norvegicus, ip, 24 h, read-out: Amphetamine antagonism ED50.
A short description of test [3]: Catalepsy wire mesh, rat, max. The following applies: Rattus norvegicus, sc; rats, s.c., strongest effect within first 6 hours; read-out: Catalepsy wire mesh, rat, max. ED50. Format: in vivo, rats. Here is the method: Catalepsy wire mesh, rat, max. (ED50 mg/kg s.c.)
A vertical wire netting (50 cm×49 cm). The meshes (openings) of the netting are square (1 cm×1 cm). The wire diameter is 2 mm. Stop watch. Rats, male, 180-200 g.
The animals are labeled and used in groups of five. The test substance is injected subcutaneously (s.c.) (5 ml/kg) at 4 dose levels selected from the fixed dose scale.
The animals are placed in the middle of the vertical wire netting 60, 120, 180, 240, 300 and 360 minutes after injection of the test compound. The animals are considered cataleptic when they remain immobile during a period of 15 seconds. This cataleptic reaction is designated +. If the rats are "atonic" and passively slide down the wire mesh they are considered not cataleptic. If the animals climb up and down the wire mesh they are nor cataleptic. In both situations the designation - is used.

A short description of test [4]: Neuroleptic effect: duration and strength (remarks of Table 2). Format: in vivo. The following applies: in words; for Duration (remarks, words): duration of neuroleptic effect; for Strength of effect (remarks, words): strength of neuroleptic effect. From the text:
The pharmacological testing of the novel xanthones and thioxanthenes of Formula I consisted of standard and reliable tests. […]

Where [5] appears, read: mice, i.p., methylphenidate 60 mg/kg s.c. 2 h after test substance, read-out: Methylphenidate antagonism ED50, 2 h.
The mark [6] stands for this setting: mice, i.p., methylphenidate 60 mg/kg s.c. 24 h after test substance, read-out: Methylphenidate antagonism ED50, 24 h.

The results in this text go back to patent publication US4285956A, “Xanthene and thioxanthene derivatives, compositions thereof and treatment therewith” (priority 1978, dated 1981).

The term ED50 denotes the dose at which the effect has come halfway, by size or by number of responders.

In the case of `O=C1OCCN1CCN1CCC(=C2c3ccccc3Sc3ccc(Cl)cc32)CC1` [Lu 14-106, 1-(2-(2-Oxazolidinone-3-yl)ethyl)-4-(2-chloro-9-thioxanthenylidene)piperidine], the ED50 is 0.51 mg/kg in test [1] (setting [5]), more than 40 mg/kg in test [1] (setting [6]), 1 mg/kg in test [2] and 6.6 mg/kg in test [3]. Further, in test [4], the “Duration (remarks, words)” value is listed as “short acting”. For the same compound, the “Strength of effect (remarks, words)” value in test [4] was “strong”.
Turning to `OCCN1CCN(CCC=C2c3ccccc3Sc3ccc(C(F)(F)F)cc32)CC1` [flupentixol, reference compound], the ED50 in test [1] (2 h, read-out: Methylphenidate antagonism ED50, 2 h) is 0.2 mg/kg; in test [1] (24 h, read-out: Methylphenidate antagonism ED50, 24 h) it was more than 20 mg/kg; in test [2] it was 0.69 mg/kg; in test [3], 0.25 mg/kg. Further, the “Duration (remarks, words)” value in test [4] is “short acting”. The “Strength of effect (remarks, words)” value in test [4] is recorded as “strong”.
Turning to `N[C@H]1CC[C@H](CN2CCC(=C3c4ccccc4Sc4ccc(Cl)cc43)CC2)CC1` [Lu 16-081], the ED50 in test [1] (setting [5]) was found to be 0.5 mg/kg. For the same compound, the ED50 in test [1] (setting [6]) is approximately 10 mg/kg. In test [4], the “Duration (remarks, words)” value is “short acting” and the “Strength of effect (remarks, words)” value is “moderately strong”.
On to `O[C@@H]1CC[C@H](CN2CCC(=C3c4ccccc4Sc4ccc(Cl)cc43)CC2)C[C@H]1O` (relative stereo) [Lu 15-041, 1-(3-trans-4-cis-dihydroxycyclohexylmethyl)-4-(2-chloro-9-thioxanthenylidene)piperidine], for which the ED50 is 0.62 mg/kg in test [1] (setting [5]), 3.6 mg/kg in test [1] (setting [6]) and less than 0.31 mg/kg in test [2]. Also, the “Duration (remarks, words)” value in test [4] was “moderately long acting”. Also, the “Strength of effect (remarks, words)” value in test [4] is given as “strong”.
For the compound `Fc1ccc2c(c1)Sc1ccc(C(F)(F)F)cc1C2=C1CCN(CC2CCOCC2)CC1` [Lu 15-031, 1-(4-tetrahydropyranylmethyl)-4-(2-trifluoromethyl-6-fluoro-9-thioxanthenylidene)piperidine], the results for the ED50 in test [1] (setting [5]), in test [1] (setting [6]) and in test [2] were 0.52 mg/kg, 0.55 mg/kg and 1.3 mg/kg, respectively. Moreover, the “Duration (remarks, words)” value in test [4] was “long acting”. In test [4], the “Strength of effect (remarks, words)” value was “moderately strong”.
For `Cc1ccc2c(c1)Sc1ccc(F)cc1C2=C1CCN(C[C@H]2CC[C@H](O)CC2)CC1` [Lu 14-090, 1-(trans-4-hydroxycyclohexylmethyl)-4-(2-fluoro-6-methyl-9-thioxanthenylidene)-piperidine], the ED50 in test [1] (setting [5]) came out at 1.25 mg/kg. For the same compound, the ED50 in test [1] (setting [6]) turned out to be 32 mg/kg. In addition, in test [4], the “Duration (remarks, words)” value is recorded as “short acting” and the “Strength of effect (remarks, words)” value is “moderately strong”.
As for `CN(C)S(=O)(=O)c1ccc2c(c1)C(=C1CCN(C[C@H]3CC[C@H](O)CC3)CC1)c1ccc(F)cc1S2` [Lu 16-107, 1-(Trans-4-hydroxycyclohexylmethyl)-4-(2-dimethylsulfamoyl-6-fluoro-9-thioxanthenylidene)piperidine], the ED50 turned out to be 1.9 mg/kg in test [1] (setting [5]), 0.76 mg/kg in test [1] (setting [6]) and 0.28 mg/kg in test [3]. In addition, the “Duration (remarks, words)” value in test [4] is “long acting”. Also, the “Strength of effect (remarks, words)” value in test [4] was “moderately strong”.
Consider `O[C@H]1CCCC[C@H]1CN1CCC(=C2c3ccc(F)cc3Sc3ccc(C(F)(F)F)cc32)CC1` (relative stereo) [Lu 15-138, 1-(cis-2-hydroxycyclohexylmethyl)-4-(2-trifluoromethyl-6-fluoro-9-thioxanthenylidene)-piperidine], for which the ED50 in test [1] (setting [5]) turned out to be 1.3 mg/kg; in test [1] (setting [6]), 0.15 mg/kg; in test [2], 1.7 mg/kg. Also, the “Duration (remarks, words)” value in test [4] was “long acting”. In addition, in test [4], the “Strength of effect (remarks, words)” value is recorded as “strong”.
As for `OC1COC(CN2CCC(=C3c4ccccc4Sc4ccc(Cl)cc43)CC2)OC1` (stereo not shown) [Lu 14-140, 1-(5-hydroxy-1,3-dioxan-2-yl)methyl-4-(2-chloro-9-thioxanthenylidene)-piperidine], the ED50 in test [1] (setting [5]) was 0.77 mg/kg. In addition, the ED50 in test [1] (setting [6]) is more than 40 mg/kg. Moreover, in test [4], the “Duration (remarks, words)” value is listed as “short acting” and the “Strength of effect (remarks, words)” value is “strong”.
For `O[C@H]1CC[C@H](CN2CCC(=C3c4ccc(F)cc4Sc4cc(F)ccc43)CC2)CC1` [Lu 15-062, 1-(trans-4-hydroxycyclohexylmethyl)-4-(3,6-di-fluoro-9-thioxanthenylidene)-piperidine], the ED50 in test [1] (setting [5]) was 0.77 mg/kg; in test [1] (setting [6]), more than 10 mg/kg; in test [2] it was 0.85 mg/kg. The “Duration (remarks, words)” value in test [4] is given as “short acting”. For the same compound, the “Strength of effect (remarks, words)” value in test [4] is “moderately strong”.
In the case of `O[C@H]1CC[C@@H](CN2CCC(=C3c4ccccc4Sc4ccc(Cl)cc43)CC2)CC1` [Lu 15-014, 1-(Cis-4-hydroxycyclohexylmethyl)-4-(2-chloro-9-thioxanthenylidene)-piperidine], the ED50 in test [1] (setting [5]) was 0.2 mg/kg; in test [1] (setting [6]) it was more than 10 mg/kg; in test [3] it was 2.5 mg/kg. For the same compound, the “Duration (remarks, words)” value in test [4] is reported as “short acting”. The “Strength of effect (remarks, words)” value in test [4] was “strong”.
On to `CC1(O)CCC(CN2CCC(=C3c4ccc(F)cc4Sc4ccc(C(F)(F)F)cc43)CC2)CC1` (stereo not shown) [Lu 15-048, 1-(4-hydroxy-4-methylcyclohexylmethyl)-4-(2-trifluoromethyl-6-fluoro-9-thioxanthenylidene)-piperidine], for which the results for the ED50 in test [1] (setting [5]), in test [1] (setting [6]) and in test [2] were 1.3 mg/kg, 0.13 mg/kg and less than 0.31 mg/kg, respectively. The “Duration (remarks, words)” value in test [4] is listed as “long acting”. The “Strength of effect (remarks, words)” value in test [4] is “strong”.
On to `CC(=O)N[C@H]1CC[C@H](CN2CCC(=C3c4ccc(F)cc4Sc4ccc(C(F)(F)F)cc43)CC2)CC1` [Lu 16-043], for which the figures for the ED50 in test [1] (setting [5]), in test [1] (setting [6]) and in test [3] were more than 10 mg/kg, 0.42 mg/kg and more than 20 mg/kg, respectively. The “Duration (remarks, words)” value in test [4] was “long acting”. The “Strength of effect (remarks, words)” value in test [4] is listed as “relatively strong”.
For `Cc1ccc2c(c1)C(=C1CCN(C[C@H]3CC[C@H](O)CC3)CC1)c1ccc(F)cc1S2` [Lu 14-082, 1-(trans-4-hydroxycyclohexylmethyl)-4-(2-methyl-6-fluoro-9-thioxanthenylidene)-piperidine], the ED50 in test [1] (setting [5]) is 0.79 mg/kg. In test [1] (setting [6]), the ED50 was more than 10 mg/kg. In addition, in test [4], the “Duration (remarks, words)” value is “short acting” and the “Strength of effect (remarks, words)” value was “moderately strong”.
In the case of `O[C@H]1CC[C@H](CN2CCC(=C3c4ccc(F)cc4Sc4ccc(Cl)cc43)CC2)CC1` [Lu 14-114, 1-(trans-4-hydroxycyclohexylmethyl)-4-(2-chloro-6-fluoro-9-thioxanthenylidene)-piperidine], the ED50 was determined as 0.1 mg/kg in test [1] (setting [5]), 6.6 mg/kg in test [1] (setting [6]) and 0.35 mg/kg in test [2]. Further, in test [4], the “Duration (remarks, words)” value is reported as “short acting”. For the same compound, the “Strength of effect (remarks, words)” value in test [4] is listed as “strong”.
For the compound `CS(=O)(=O)c1ccc2c(c1)C(=C1CCN(C[C@H]3CC[C@H](O)CC3)CC1)c1ccccc1S2` [Lu 16-066, 1-(Trans-4-hydroxycyclohexylmethyl)-4-(2-methylsulfonyl-9-thioxanthenylidene)piperidine], the ED50 in test [1] (setting [5]) is 0.73 mg/kg; in test [1] (setting [6]) it was more than 10 mg/kg; in test [3], 0.25 mg/kg. The “Duration (remarks, words)” value in test [4] is “short acting”. Further, in test [4], the “Strength of effect (remarks, words)” value was “moderately strong”.
Regarding `O[C@@H]1CC[C@H](CN2CCC(=C3c4ccc(F)cc4Sc4ccc(Cl)cc43)CC2)C[C@H]1O` (relative stereo) [Lu 15-070, 1-(3-trans-4-cis-dihydroxycyclohexylmethyl)-4-(2-chloro-6-fluoro-9-thioxanthenylidene)-piperidine], the ED50 in test [1] (setting [5]) was determined as 0.51 mg/kg; in test [1] (setting [6]) it was 0.5 mg/kg. Moreover, the “Duration (remarks, words)” value in test [4] was “moderately long acting”.
Take “1-(2-Oxazolidinon-3-yl)ethyl)-4-(2-fluoro-6-methyl-9-thioxanthenylidene)-piperidine [Lu-15-062]”: the “Methylphenidate antagonism ED50, 2 h” value in test [1] (mice, i.p., methylphenidate 60 mg/kg s.c. 2 h after test substance) amounted to 0.51 mg/kg. Further, in test [1] (mice, i.p., methylphenidate 60 mg/kg s.c. 24 h after test substance), the “Methylphenidate antagonism ED50, 24 h” value is more than 40 mg/kg. Moreover, in test [4], the “Duration (remarks, words)” value is recorded as “short acting” and the “Strength of effect (remarks, words)” value was “moderately strong”.
